Measured values published in patent publication EP2797914B1, “NIFURATEL SULFOXIDE FOR USE IN THE TREATMENT OF BACTERIAL INFECTIONS” (Polichem SA, priority 2011, dated 2013).

Legend:
Assay type in all cases: cell-based
[1] = test system: Lactobacillus iners ATCC 55195; experiment: MIC by broth microdilution method (CLSI M07-A8 / M11-A7); settings: broth microdilution; Lactobacillus iners ATCC 55195
Protocol: The in vitro activity of nifuratel sulfoxide racemate, R-nifuratel sulfoxide and S-nifuratel sulfoxide was tested on a panel of bacteria, which included both Gram positive and Gram negative bacteria. The minimum inhibitory concentrations (MICs) of the compounds were determined by the broth microdilution method or by the agar dilution method, according to the National Committee for Clinical Laboratory Standards (CLSI) reference methods […]-A8 and M11-A7.

[2] = test system: Escherichia coli ATCC 11775; experiment: MIC by broth microdilution method (CLSI M07-A8 / M11-A7); efficiency coefficient derived; settings: broth microdilution; Escherichia coli ATCC 11775
Protocol: (§1) The in vitro activity of nifuratel sulfoxide racemate, R-nifuratel sulfoxide and S-nifuratel sulfoxide was tested on a panel of bacteria, which included both Gram positive and Gram negative bacteria.
(§2) The minimum inhibitory concentrations (MICs) of the compounds were determined by the broth microdilution method or by the agar dilution method, according to the National Committee for Clinical Laboratory Standards (CLSI) reference methods M07-A8 and M11-A7.
(§3) The efficiency coefficient (EC) of nifuratel sulfoxide vs. nifuratel was calculated for each tested strain as follows: EC = relative oral bioavailability*[…] [formula]
(§4) Where: • nifS = nifuratel sulfoxide • nif = nifuratel • EC = 1 is indicative of equivalent efficiency between nifuratel sulfoxide and nifuratel. • EC < 1 is indicative of a lower efficiency of nifuratel sulfoxide vs. nifuratel • EC > 1 is indicative of a higher efficiency of nifS vs. nif

[3] = test system: Klebsiella pneumonia ATCC 10031; experiment: as above; settings: broth microdilution; Klebsiella pneumonia ATCC 10031
Protocol: as §1, §2, §3, §4

[4] = test system: Micrococcus pyogenes ATCC 11631; experiment: as above; settings: broth microdilution; Micrococcus pyogenes ATCC 11631
Protocol: as §1, §2, §3, §4

[5] = test system: Neisseria gonorrhoeae ATCC 19424; experiment: as above; settings: broth microdilution; Neisseria gonorrhoeae ATCC 19424
Protocol: as §1, §2, §3, §4

[6] = test system: Proteus mirabilis ATCC 14153; experiment: as above; settings: broth microdilution; Proteus mirabilis ATCC 14153
Protocol: as §1, §2, §3, §4

[7] = test system: Salmonella paratyphi B ATCC 10719; experiment: as above
Protocol: as §1, §2, §3, §4

[8] = test system: Salmonella typhimurium ATCC 14028; experiment: as above; settings: broth microdilution; Salmonella typhimurium ATCC 14028
Protocol: as §1, §2, §3, §4

[9] = test system: Shigella sonnei ATCC 11060; experiment: as above
Protocol: as §1, §2, §3, §4

[10] = test system: Staphylococcus aureus (MRSA); experiment: as above; settings: broth microdilution; Staphylococcus aureus (MRSA)
Protocol: as §1, §2, §3, §4

Atopobium vaginae = experiment: MIC by agar dilution method (CLSI M07-A8 / M11-A7); efficiency coefficient derived; settings: for MIC: agar dilution; for in vitro antimicrobial activity (in words): tested Atopobium vaginae strains
Protocol: as §1, §2, §3, §4

Gardnerella vaginalis = experiment: as above; settings: for MIC: agar dilution; for in vitro antimicrobial activity (in words): tested Gardnerella vaginalis strains
Protocol: as §1, §2, §3, §4

SMILES | MIC [1] [µg/mL] | MIC [2] [µg/mL] | MIC [3] [µg/mL] | MIC [4] [µg/mL] | MIC [5] [µg/mL] | MIC [6] [µg/mL] | MIC [7] [µg/mL] | MIC [8] [µg/mL] | MIC [9] [µg/mL] | MIC [10] [µg/mL] | MIC (Atopobium vaginae; strain CCUG 38953) [µg/mL] | MIC (Atopobium vaginae; strain CCUG 39382) [µg/mL] | MIC (Atopobium vaginae; strain CCUG 42099) [µg/mL] | MIC (Atopobium vaginae; strain CCUG 43049) [µg/mL] | MIC (Atopobium vaginae; strain CCUG 44061) [µg/mL] | MIC (Atopobium vaginae; strain CCUG 44156) [µg/mL] | MIC (Atopobium vaginae; strain CCUG 48515) [µg/mL] | MIC (Atopobium vaginae; strain CCUG 55226) [µg/mL] | MIC (Atopobium vaginae; strain CCUG 55227) [µg/mL] | in vitro antimicrobial activity (in words) (Atopobium vaginae) | other results
C[S+]([O-])CC1CN(N=Cc2ccc([N+](=O)[O-])o2)C(=O)O1 (mixture of isomers) [R-Nifuratel sulfoxide, (R)-nifuratel sulfoxide] | 16 | 16 | 16 | 32 | 2 | 8 | 16 | 16 | 16 | 16 | 1 | 1 | 1 | 4 | 1 | 2 | 2 | 2 | 1 | good activity | MIC (Gardnerella vaginalis; strain ATCC 14018): 8 µg/mL; MIC (Gardnerella vaginalis; strain C2): 32 µg/mL; MIC (Gardnerella vaginalis; strain D2): 64 µg/mL; MIC (Gardnerella vaginalis; strain E2): 64 µg/mL; MIC (Gardnerella vaginalis; strain G2): 64 µg/mL; MIC (Gardnerella vaginalis; strain H2): 16 µg/mL; MIC (Gardnerella vaginalis; strain J2): 32 µg/mL; MIC (Gardnerella vaginalis; strain K2): 64 µg/mL; in vitro antimicrobial activity (in words) (Gardnerella vaginalis): good activity
C[S+]([O-])CC1CN(N=Cc2ccc([N+](=O)[O-])o2)C(=O)O1 (mixture of isomers) [S-Nifuratel sulfoxide, (S)-nifuratel sulfoxide] | 32 | 16 | 16 | 64 | 2 | 4 | 8 | 16 | 16 | 16 | 2 | 2 | 16 | 8 | 1 | 2 | 2 | 8 | 4 | good activity | MIC (Gardnerella vaginalis; strain ATCC 14018): 16 µg/mL; MIC (Gardnerella vaginalis; strain C2): 16 µg/mL; MIC (Gardnerella vaginalis; strain D2): 16 µg/mL; MIC (Gardnerella vaginalis; strain E2): 32 µg/mL; MIC (Gardnerella vaginalis; strain G2): 16 µg/mL; MIC (Gardnerella vaginalis; strain H2): 8 µg/mL; MIC (Gardnerella vaginalis; strain J2): 16 µg/mL; MIC (Gardnerella vaginalis; strain K2): 32 µg/mL; in vitro antimicrobial activity (in words) (Gardnerella vaginalis): good activity
